Results: patent EP1118615A1, “NOVEL SALTS OF PYRIDOPYRAZINE COMPOUND AND CRYSTALS THEREOF” (FUJISAWA PHARMACEUTICAL CO., LTD., priority 1998, dated 2000)
Where a name gives a salt, the structure may show the parent alone. Read-outs that look alike come from different tables or passages of the source.

Assays:
Hygroscopicity = assay type: physicochemical
Description: (§1) In the study on polymorphism of compound (I), six kinds of polymorphs (A01, A09, A16, A20, A30 and A43 crystals) were found. For each of those polymorphs, hygroscopicity, stability in solid state, solubility and changes in crystallinity on compounding with various solvents were studied. However, the A30 crystal was not studied since it contains ethanol.

[1] = Changes in crystallinity upon compounding with ethanol; assay type: physicochemical
Description: (2) Changes in crystallinity upon compounding
For compound (I) and hydrochloride (B), changes in crystallinity upon compounding with ethanol were studied.

physchem = details: thermodynamic from solid
Stability in solid state = assay type: physicochemical; set-up: Water content: unit not given here
Description: The crystallinity of hydrochloride was decreased when it was mixed with ethanol.
as §1
(2) Stability in solid state

[2] = methanesulfonate
[3] = distilled water for injection, water
[4] = physiological saline solution, saline or isotonic
[5] = Table 4, room temperature, 30-min shaking
[6] = 70°C, 75% RH, 9 days, methanesulfonate
[7] = Table 1, listed as Compound (I) (A01 crystal)

In the case of CS(=O)(=O)O.O=C(Nc1cccc(-n2c(=O)c(Cc3cccnc3)nc3cccnc32)c1)c1cc(Cl)cc(Cl)c1 [Example A09, 4-(3-(3,5-dichlorobenzoylamino)phenyl)-2-(3-pyridyl)methyl-3-oxo-3,4-dihydropyrido[2,3-b]pyrazine methanesulfonate], the Hygroscopicity (Hygroscopicity; methanesulfonate) is reported as “highly hygroscopic”.
With CS(=O)(=O)O.O=C(Nc1cccc(-n2c(=O)c(Cc3cccnc3)nc3cccnc32)c1)c1cc(Cl)cc(Cl)c1 [compound (I), 4-[3-(3,5-dichlorobenzoylamino)phenyl]-2-(3-pyridylmethyl)-3-oxo-3,4-dihydropyr ido[2,3-b]pyrazine methanesulfonate] the “Influence of compounding with ethanol on crystallinity” value (“Influence of compounding with ethanol” below) ([1]; methanesulfonate) was “no change in crystallinity”.
Molecule O=C(Nc1cccc(-n2c(=O)c(Cc3cccnc3)nc3cccnc32)c1)c1cc(Cl)cc(Cl)c1.O=S(=O)(O)O [sulfate, 4-(3-(3,5-dichlorobenzoylamino)phenyl)-2-(3-pyridyl)methyl-3-oxo-3,4-dihydropyrido[2,3-b]pyrazine sulfate, reference compound] has a solubility (physchem; [3]) of 29.5 µg/mL and a solubility (physchem; [4]) of 38.9 µg/mL.
For O=C(Nc1cccc(-n2c(=O)c(Cc3cccnc3)nc3cccnc32)c1)c1cc(Cl)cc(Cl)c1 [hydrochloride (B), reference compound], the residual amount (Stability in solid state; ethanol-compounded solid, 70°C for 9 days) was 91%, the “Influence of compounding with ethanol” value ([1]; listed as Hydrochloride (B)) was “Crystallinity decreased” and the “Influence of compounding with ethanol” value ([1]; listed as hydrochloride) was “decreased”.
In the case of CS(=O)(=O)O.O=C(Nc1cccc(-n2c(=O)c(Cc3cccnc3)nc3cccnc32)c1)c1cc(Cl)cc(Cl)c1 [A20 crystal, 4-(3-(3,5-dichlorobenzoylamino)phenyl)-2-(3-pyridyl)methyl-3-oxo-3,4-dihydropyr ido[2,3-b]pyrazine methanesulfonate], the “Solubility, Distilled injection for injection” value [2, 5] is reported as 8.76 µg/mL, the “Solubility, Physiological saline solution” value [2, 5] is reported as 0.0645 mg/ml and the Crystal form (Stability in solid state; 70°C, 75% RH, 9 days) is reported as “Unchanged”. For the same molecule, the “% Residue” value (Stability in solid state; [6]) was 101.0%, the Appearance (Stability in solid state; [6]) was “Pale yellowish white crystalline powder” and the Water content (Stability in solid state; [6]) was 1.22. For the same molecule, the Crystal form (Stability in solid state; 70°C, 9 days) was “Unchanged”, the “% Residue” value (Stability in solid state; 70°C, 9 days, methanesulfonate) was 99.6% and the Appearance (Stability in solid state; 70°C, 9 days, methanesulfonate) was “Pale yellowish white crystalline powder”. The Water content (Stability in solid state; 70°C, 9 days, methanesulfonate) was 0.30, the “% Residue” value (Stability in solid state; Initial) was 100.0% and the Appearance (Stability in solid state; Initial, methanesulfonate) was “Pale yellowish white white crystalline powder”. The Water content (Stability in solid state; Initial, methanesulfonate) was 0.41, the “change in crystal form” value (Stability in solid state; heat and humidity, summary of Table 3) was “no change” and the “chemical stability against heat and humidity” value (Stability in solid state; summary of Table 3) was “chemically stable”. The Hygroscopicity (Hygroscopicity; listed as A20, methanesulfonate) was “less hygroscopic”.
With CS(=O)(=O)O.O=C(Nc1cccc(-n2c(=O)c(Cc3cccnc3)nc3cccnc32)c1)c1cc(Cl)cc(Cl)c1 [A01 crystal, 4-(3-(3,5-dichlorobenzoylamino)phenyl)-2-(3-pyridyl)methyl-3-oxo-3,4-dihydropyr ido[2,3-b]pyrazine methanesulfonate] the “Solubility, Distilled water for injection” value [2, 7] was “improved”, the “Solubility, Physiological saline solution” value [2, 7] was “improved” and the “Solubility, Distilled injection for injection” value [2, 5] was 637 µg/mL. The Crystal form (Stability in solid state; 70°C, 75% RH, 9 days) was “Unchanged”, the “% Residue” value (Stability in solid state; [6]) was 99.9% and the Appearance (Stability in solid state; [6]) was “Yellowish white crystalline powder powder”. For the same molecule, the Water content (Stability in solid state; [6]) was 4.76, the Crystal form (Stability in solid state; 70°C, 9 days) was “Unchanged” and the Appearance (Stability in solid state; 70°C, 9 days, methanesulfonate) was “Yellowish white crystalline powder”. For the same molecule, the Water content (Stability in solid state; 70°C, 9 days, methanesulfonate) was 4.23, the “% Residue” value (Stability in solid state; Initial) was 100.0% and the Appearance (Stability in solid state; Initial, methanesulfonate) was “Yellowish white crystalline powder”. The Water content (Stability in solid state; Initial, methanesulfonate) was 4.42, the Hygroscopicity (Hygroscopicity; listed as A01, methanesulfonate) was “less hygroscopic” and the solubility (physchem; [3]) was 637 µg/mL. The solubility (physchem; [4]) was 43.9 µg/mL, the solubility at 30 min (physchem; [4]) was 43.9 µg/mL and the “Influence of compounding with ethanol” value ([1]; listed as Compound (I) (A01 crystal), methanesulfonate) was “No change (changed into in A16 crystal)”.
With O=C(Nc1cccc(-n2c(=O)c(Cc3cccnc3)nc3cccnc32)c1)c1cc(Cl)cc(Cl)c1 [free base (A), 4-[3-(3,5-dichlorobenzoylamino)phenyl]-2-(3-pyridylmethyl)-3-oxo-3,4-dihydropyr ido[2,3-b]pyrazine, reference compound] the solubility (physchem; [3]) was ≤ 1 µg/mL and the solubility (physchem; [4]) was ≤ 1 µg/mL.
